Test results published in patent publication US20160022625A1, “TASHINONES AND THEIR DERIVATIVES: NOVEL EXCELLENT DRUGS FOR ALZHEIMER DISEASE” (priority 2013, published 2016).
Where two headings read alike, the source gives them in different places.

Columns and labels:
Aβ1-42 [1] = biological target: T1, Aβ1-42 (Homo sapiens, UniProt P05067); test: ThT fluorescence assay of Aβ1-42 amyloid formation (inhibition assay); format: biochemical; conditions: 20 μM Aβ1-42, 37° C.; for final ThT fluorescence intensity reduced by: Aβ:TS=1:2, 24 hour
T1 construct: Aβ1-42 peptide (≧95.5%) was all purchased from American Peptide Inc; purchased American Peptide Inc. (Sunnyvale, Calif.)
Method: (§1) To examine the inhibitory effect of TS1 and TS2 on Aβ aggregation, the kinetics and morphological changes of Aβ1-42 amyloid formation in the presence of different molar ratios (Aβ:TS) of two tanshinone compounds were monitored by ThT fluorescence assay and AFM (Atomic force microscopy). 20 μM Aβ1-42 solution (with or without tanshinone) was incubated at 37° C. for 48 h. ThT fluorescence assay has been widely used to detect the formation of amyloid fibrils because the binding of thioflavin dyes to amyloid fibrils enables to reduce self-quenching by restricting the rotation of the benzothiozole and benzaminic rings, leading to a significant increase in fluorescence quantum yield. […] After 24 hour reaction, a strong ThT emission was observed and remained almost unchanged within statistic errors between 24 and 48 hour incubation.
A homogeneous solution of Aβ monomers was required for inhibition tests. The purified Aβ1-42 powder was aliquoted in DMSO for 1 min and sonicated for 30 sec. The initiation of 20 μM Aβ1-42 [containing 1% (v/v) DMSO] aggregation in solution was accomplished by adding an aliquot of the concentrated DMSO-Aβ1-42 solution to 10 mM PBS buffer, followed by immediate vortexing to mix thoroughly. Aβ1-42 solution was then centrifuged with 14,000 rpm for 30 min at 4° C. to remove any existing oligomers, which 75% of the top solution was removed for further incubation or inhibition experiments. The pure Aβ1-42 solution was incubated at 37° C. as control. For Aβ inhibition experiments, 40 mM tanshinone (in DMSO) stock solution was dissolved in freshly prepared Aβ1-42 monomer solution to a final concentration of 20 μM and 40 μM (with Aβ:tanshinone molar ratio of 1:1 and 1:2), respectively. The mixed Aβ-tanshinone samples were incubated at 37° C.
(§2) Aβ1-42 fibrillization and Aβ1-42 fibril disruption in the presence and absence of tanshinones were monitored by ThT fluorescence assay. 2 mM ThT store solution was prepared by adding 0.0328 g ThT powder into 50 mL DI water. 250 μL of the 2 mM ThT solution was further diluted into 50 mL Tris-buffer (pH=7.4) to reach a final concentration of 10 μM. 60 μL of 20 μM Aβ with or without tanshinone was put into 3 mL of 10 μM ThT-Tris solution. Fluorescence spectra were obtained using a LS-55 fluorescence spectrometer (Perkin Elmer Corp., Waltham, Mass.). All measurements were carried out in aqueous solution using a 1 cm×1 cm quartz cuvette. ThT fluorescence emission intensity of each sample was recorded between 460 and 510 nm with an excitation wavelength of 450 nm. Fluorescence intensity from solution without Aβ1-42 was subtracted from solution containing Aβ1-42. Each experiment was repeated in 3 independent samples and each sample was tested quadrupled.

Aβ1-42 [2] = biological target: T1, Aβ1-42; test: AFM morphology of Aβ1-42 incubated with tanshinones; conditions: Aβ:TS=1:1, within the first 4 hours
Method: as §1
The morphology change of Aβ fibrillization and disruption in the presence and absence of tanshinones was characterized by AFM. A 25 μL sample used in the Aβ1-42 ThT fluorescence assay was taken for AFM measurement at different time points to correlate Aβ morphology change with Aβ grow kinetics. […]

Aβ1-42 fibrils = biological target: T2, Aβ1-42 fibrils (Homo sapiens, UniProt P05067); test: Disruption assay of preformed Aβ fibrils (ThT fluorescence); format: biochemical; conditions: 20 μM Aβ fibrils, 37° C.; for decrease in ThT fluorescence of preformed Aβ fibrils vs untreated Aβ control: Aβ:TS=1:1, 48 hour co-incubation; for ThT intensity of preformed Aβ fibrils decreased by: Aβ:TS=1:2, 48 hour co-incubation
T2 construct: Aβ1-42 peptide (≧95.5%) was all purchased from American Peptide Inc; purchased American Peptide Inc. (Sunnyvale, Calif.)
Method: The alternative potential therapeutic strategy to treat AD (Alzheimer's Disease) is to reduce the amount of the existing amyloid plaques. A very few molecules have been reported to disaggregate Aβ amyloid. […] To determine the ability of Aβ fibril dissolution by tanshinone in vitro, we set up experiments in which tanshinone was incubated with preformed fibrils. 20 μM Aβ fibrils were first prepared by incubating Aβ monomers in solution for 48 hour, which is sufficient long enough for Aβ to grow into mature fibrils as evidenced through AFM images and ThT fluorescence (FIG. 2). Upon 48 hour incubation, Aβ fibril solution was then co-incubated with TS1 or TS2 with different molar ratios of Aβ:TS (1:1, 1:2, and 1:5) for another 48 hour at 37° C.
Aβ1-42 fibrils were prepared by incubating 20 μM Aβ1-42 monomers for 48 h, which is sufficient long enough to enable Aβ peptides to grow into mature fibrils at a saturate state. The fibril solution was then divided into aliquots for the disruption tests. […] All the disruption samples were incubated at 37° C.
as §2

SH-SY5Y cells [3] = test: Live/dead cell toxicity assay, tanshinone alone; format: cell-based
Text: (§3) In order to determine whether tanshinone compounds are able to protect neuronal cells from toxic Aβ species, we conducted cell viability experiments to compare the toxic effects of Aβ, TS1, TS2, Aβ-TS1, and Aβ-TS2 on the SH-SY5Y cells using the SH-SY5Y live/dead assay, which is widely used in studies of Aβ toxicity. Opti-MEM reduced serum medium was used to minimize the noise of fluorescence. We then set the cell death data obtained from Aβ-cell control experiment as a basis of 100% to normalize other data for comparison. […] When treated the cells with 8 μM TS1 or TS2 alone (Aβ:TS=1:0.4), cell death was 25.3% and 20.5% (FIG. 5), respectively. Considering the physiological concentration of Aβ is as low as 10^-9 M, 8 μM tanshinone may exceed a lethal dose to induce cell death. We thus reduced the concentation of TS1 or TS2 to a clinical trial level of 4 μM for cell viability tests. […] We then performed Aβ-tanshione cell toxicity experiments using a 1:0.2 mixture of tanshinones (4 μM) and Aβ (20 μM). […] TS1 appears to be less toxic than TS2 by 13.8%.
(§4) All chemicals for cell culture were purchased from Life Technologies unless otherwise stated. Human neuroblastoma SH-SY5Y cell (ATCC, Manassas, Va., USA) was used as model neuron and cultured in 75 cm^2 T-flasks (Corning) in sterile-filtered Eagles Minimum Essential Medium and Ham's F-12 medium mixed at a 1:1 ratio containing 10% fetal bovine serum (EMEM, ATCC, Manassas, Va., USA), and 1% penicillin/streptomycin in 37° C., humidified air with 5% CO2. Cells were cultured to confluence, and harvested using 0.25 mg/ml Trypsin/EDTA solution (Lonza). Before adding Aβ and tanshinone, cells were re-suspended in Opti-MEM reduced serum medium and counted using a hemacytometer. Cells were then plated in a 24-well tissue culture plate with approximately 150,000 cells per well in 500 μl of Opti-MEM reduced serum medium, and allowed to attach for 24 hours inside the incubator.
(§5) Aβ oligomers were prepared by incubating a 1 mM Aβ-PBS solution at 37° C. for 24 h. Aβ oligomers with a molar ratio of Aβ:tanshinone of 1:0.2 were added to each well to reach a final concentration of 20 μM. The cells were then left for 24 hours before cell toxicity tests. A live/dead cytotoxicity assay, which determines live and dead cells with two probes by measuring intracellular esterase activity and plasma membrane integrity, was used to obtain cell viability/toxicity data. Cells were stained by adding 2 μM of Calcein AM (Life Technologies) to distinguish the presence of live cells with a fluorescence excitation/emission of 494/517 nm, while by adding 5 μM of Ethidium homodimer-1 (Life Technologies) to distinguish the presence of dead cells with a fluorescence excitation/emission of 528/617 nm. The cells were incubated for 15 minutes with the live/dead assay contents to activate the fluorescent dyes. A Zeiss Axiovert 40 CFL inverted microscope fitted with filters at 510 nm and 600 nm was used to obtain fluorescence images of the live and dead cells. Fluorescence readings at 494/517 nm and 528/617 nm were detected using a Synergry H1 microplate reader (BioTek, Winooski, Vt.). Cell death in each incubation condition was normalized using the equation of ΔF=(Fi/FAβ)*100%, where ΔF is the percentage of cell death in different incubation conditions compared with the death of cells co-incubate with Aβ. Fi corresponds to the dead/live fluorescence signal of cells (blank control), cells co-incubate with TS1, cells co-incubate with TS2, cells co-incubate with Aβ and TS1, cells co-incubate with Aβ and TS2, and cells co-incubate with Aβ, respectively. FAβ represents the dead/live fluorescence signal of cells co-incubate with Aβ. The fluorescence signals of blank dyes were calibrated first and then subtracted from the fluorescence signals of medium solution.

SH-SY5Y cells [4] = test: Live/dead cell assay, protection from Aβ-induced toxicity; format: cell-based, Human; conditions: for protect cultured-cells from Aβ-induced toxicity by: co-incubation of Aβ with a very small amount of TSs; for percentage of dead cells (normalized to Aβ alone = 100%): tanshinone 4 μM + Aβ 20 μM (1:0.2), 24 hour, SH-SY5Y
Text: as §3, §4
as §5, with “The cells were incubated for 15 minutes with the live/dead assay contents to activate the fluorescent dyes.” left out, “Cell death in each incubation condition was normalized using the equation of ΔF=(Fi/FAβ)*100%, where ΔF is the percentage of cell death in different incubation conditions compared with the death of cells co-incubate with Aβ.” left out

T1 sequence (P05067 672-713 limits assumed): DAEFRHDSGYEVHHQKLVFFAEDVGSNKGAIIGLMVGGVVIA
T2 sequence (P05067 672-713 limits assumed): as above

SMILES: Cc1coc2c1C(=O)C(=O)c1c-2ccc2c1CCCC2(C)C [TS2, tanshinone IIA]
- ThT intensity relative to Aβ samples without inhibitors decreased by (Aβ1-42 [1]; Aβ:TS=1:1, 24 hour): 44.8%
- ThT intensity relative to Aβ samples without inhibitors decreased by (Aβ1-42 [1]; Aβ:TS=1:1, 48 hour): 34.6%
- final ThT fluorescence intensity reduced by (Aβ1-42 [1]): 83.4%
- small spherical particles in AFM images (Aβ1-42 [2]): 1-6 nm
- decrease in ThT fluorescence of preformed Aβ fibrils vs untreated Aβ control (Aβ1-42 fibrils): ~0.8%
- ThT intensity of preformed Aβ fibrils decreased by (Aβ1-42 fibrils): ~30%
- signs of cell death by fluorescence microscopy (SH-SY5Y cells [3]): no observable signs of cell death
- cell death (normalized to Aβ-treated cells = 100%) (SH-SY5Y cells [3]; human, 24 h, 4 μM): 5.8%
- cell death (normalized to Aβ-treated cells = 100%) (SH-SY5Y cells [3]; human, 24 h, 8 μM): 20.5%
- protect cultured-cells from Aβ-induced toxicity by (SH-SY5Y cells [4]): ~71.3%
- percentage of dead cells (normalized to Aβ alone = 100%) (SH-SY5Y cells [4]): ~71.3%

SMILES: Cc1coc2c1C(=O)C(=O)c1c-2ccc2c(C)cccc12 [TS1, tanshinone I]
- ThT intensity relative to Aβ samples without inhibitors decreased by (Aβ1-42 [1]; Aβ:TS=1:1, 24 hour): 78.2%
- ThT intensity relative to Aβ samples without inhibitors decreased by (Aβ1-42 [1]; Aβ:TS=1:1, 48 hour): 65.8%
- final ThT fluorescence intensity reduced by (Aβ1-42 [1]): 88.5%
- small spherical particles in AFM images (Aβ1-42 [2]): 1-3 nm
- decrease in ThT fluorescence of preformed Aβ fibrils vs untreated Aβ control (Aβ1-42 fibrils): ~0.8%
- ThT intensity of preformed Aβ fibrils decreased by (Aβ1-42 fibrils): ~30%
- cell death (normalized to Aβ-treated cells = 100%) (SH-SY5Y cells [3]; 4 μM TS alone, 24 hour, SH-SY5Y): 9.3%
- cell death (normalized to Aβ-treated cells = 100%) (SH-SY5Y cells [3]; 8 μM TS alone, 24 hour, SH-SY5Y): 25.3%
- signs of cell death by fluorescence microscopy (SH-SY5Y cells [3]; pure TS, 4 μM level, SH-SY5Y): no observable signs of cell death
- protect cultured-cells from Aβ-induced toxicity by (SH-SY5Y cells [4]): ~57.5%
- less toxic than TS2 by (difference in dead cells) (SH-SY5Y cells [4]; tanshinone 4 μM + Aβ 20 μM): 13.8%
- percentage of dead cells (normalized to Aβ alone = 100%) (SH-SY5Y cells [4]): ~57.5%
